Test results: patent US11066368B2, “Process for the preparation and particle size reduction of pirfenidone” (Laurus Labs Limited, priority 2016, dated 2021)

Assays:
[1] = Particle size distribution after wet milling with high speed homogenizer (Silverson L5M-A); assay type: physicochemical; details: water
Experimental: (§1) As used herein, the term “particle size distribution” is expressed in terms of D90, D50 and D10, which corresponds to the diameter of 90 percent by volume of the particles, 50 percent by volume of the particles and 10 percent by volume of the particles are present, respectively.
(§2) The particle size distribution of pirfenidone is measured utilizing: Instrument model: Malvern; Mastersizer 3000; particle refraction index of sample: 1.700; Absorption: 0.01 and Analysis model: general purpose, normal sensitivity, non-spherical particles.
(§3) Water (300 mL) and Pirfenidone (100 gr; Particle size distribution: D10: 1330 μm; D50: 1950 μm and D90: 2840 μm) were charged into reaction vessel at 25° C. to 35° C. and was placed High speed stirrer/Homogenizer into the reaction mass till required particle size was obtained at 25° C. to 35° C. Particle size distribution of the sample with different time interval was monitored by collecting the sample from reaction mass. After achieving the required particle size, stirred the reaction mixture for 30-60 min at 25° C. to 35° C. Further, the reaction mixture temperature was allowed to cool to 0° C. to 5° C. and stirred for 2-3 hrs at same temperature. Filter the solid and washed with the wet cake with chilled water (100 mL), dried the solid in an oven under vacuum at 60° C. for 4-6 hours.
(§4) The following examples were performed using the above described process with different rpm and time; the obtained results are tabulated below: […]

[2] = Particle size distribution after ultra sonication by sonoprocessor (RTUL 10SP-20-3000-SD); assay type: physicochemical; details: ultra sonication in water
Experimental: as §1, §2
as §3, with “Pirfenidone (200” for “Pirfenidone (100”, “placed Sonoprocessor” for “placed High speed stirrer/Homogenizer”, “washed” for “washed with”
as §4

[3] = Particle size distribution of unmilled input pirfenidone; assay type: physicochemical; details: input material before wet milling (Reference Example 5)
Experimental: as §1, §2
Dissolving crude Pirfenidone (50 g) in ethyl acetate (100 mL) at 65-75° C. and the reaction mass was treated with activated carbon (5 g) and filtered through a short bed of Hyflo. The filtrate was partially concentrated, under reduced pressure while maintain temperature below 60° C. The mixture was gradually allowed to cool to 30±5° C. and then stirred for another 30-60 min. The suspension was again allowed to cool to 0-5° C. and maintained for another 2-3 h, at the same temperature. The precipitated material was filtered and then dried at 60±5° C., for 6-8 h, to afford Pirfenidone as white colored powder (HPLC purity 99.9%; dimer content 0.03%). Yield: 45 g.

[4] = Dust explosion test by Modified Hartmann Apparatus; assay type: physicochemical; design: key to Dust explosion class (overall): St0H: No fire or explosion; St1H: Dust fire or mild explosion; St2H: Violent explosion; details: for Dust explosion Class: sieved through 63μ
Experimental: This test was performed based on procedures from VDI 2263, Part 1 (Section 2.1.1), “Dust fires and dust explosions; hazards, assessment, protective measures”, using a Modified Hartmann Apparatus. Pirfenidone was dried at 50° C. under vacuum, sieved through 63μ sieve. Weighed amount of product was charged into a modified hartmann tube of 1.2 liter volume. The product was converted into a dust cloud in glass cylindrical tube with compressed air and electrodes with continuous spark was used as ignition source to ignite the dust cloud. Based on dust fire or extent of opening of the hinged cover rating 0, 1 or 2 are assigned.

[5] = Minimum ignition energy test by MIKE3; assay type: physicochemical; details: dust cloud, dried at 50° C., sieved through 63μ
Experimental: This test was performed based on international test method VDI 2263 part 1.2.5 using MIKE3. Pirfenidone was dried at 50° C. under vacuum, sieved through 63μ sieve. The product was converted into a dust cloud in glass cylindrical tube with compressed air. The spark for ignition was provided with moving electrodes assembly at different energy levels from 1 mJ to 1000 mJ. The energy just sufficient to ignite the dust under ignition was determined. This ignition energy was then successively halved with variation of the dust concentration and the ignition delay time in a series of tests until no ignition takes place in at least 10 successive experiments. The minimum ignition energy MIE lies between the lowest energy value at which ignition occurred and at the energy value at which no ignition observed for 10 successive experiments. The recommendations for interpreting MIE results are based on energy levels available on MIKE 3 apparatus. According to usual practice, MIE can be ranked as follow: […]

[6] = milled through a loop mill, US 8,519,140; cited from earlier work
[7] = 2000 RPM, stirring time 120 min
[8] = 2000 RPM, stirring time 240 min

With `Cc1ccc(=O)n(-c2ccccc2)c1` [Pirfenidone, 5-methyl-1-phenyl-2-1(H)-pyridone] the “PSD D10” value ([1]; 2000 RPM, stirring time 30 min) was 24 μm, the “PSD D50” value ([1]; 2000 RPM, stirring time 30 min) was 82 μm and the “PSD D90” value ([1]; 2000 RPM, stirring time 30 min) was 230 μm. For the same molecule, the “PSD D10” value ([1]; 2000 RPM, stirring time 60 min) was 24 μm, the “PSD D50” value ([1]; 2000 RPM, stirring time 60 min) was 88 μm and the “PSD D90” value ([1]; 2000 RPM, stirring time 60 min) was 200 μm. The “PSD D10” value [1, 7] was 21 μm, the “PSD D50” value [1, 7] was 75 μm and the “PSD D90” value [1, 7] was 165 μm. For the same molecule, the “PSD D10” value [1, 8] was 21 μm, the “PSD D50” value [1, 8] was 71 μm and the “PSD D90” value [1, 8] was 154 μm. The “PSD D10” value ([1]; 5000 RPM, stirring time 60 min) was 17 μm, the “PSD D50” value ([1]; 5000 RPM, stirring time 60 min) was 48 μm and the “PSD D90” value ([1]; 5000 RPM, stirring time 60 min) was 108 μm. For the same molecule, the “PSD D10” value ([1]; 7000 RPM, stirring time 60 min) was 13 μm, the “PSD D50” value ([1]; 7000 RPM, stirring time 60 min) was 42 μm and the “PSD D90” value ([1]; 7000 RPM, stirring time 60 min) was 91 μm. The “PSD D10” value ([2]; sonication time 30 min) was 44 μm, the “PSD D50” value ([2]; sonication time 30 min) was 145 μm and the “PSD D90” value ([2]; sonication time 30 min) was 245 μm. The “PSD D10” value ([2]; sonication time 60 min) was 26 μm, the “PSD D50” value ([2]; sonication time 60 min) was 101 μm and the “PSD D90” value ([2]; sonication time 60 min) was 189 μm. The “PSD D10” value ([2]; sonication time 120 min) was 19 μm, the “PSD D50” value ([2]; sonication time 120 min) was 68 μm and the “PSD D90” value ([2]; sonication time 120 min) was 150 μm. The “PSD D10” value ([2]; sonication time 180 min) was 13 μm, the “PSD D50” value ([2]; sonication time 180 min) was 48 μm and the “PSD D90” value ([2]; sonication time 180 min) was 109 μm. The “Particle size distribution D10” value [3] was 1330 μm, the “Particle size distribution D50” value [3] was 1950 μm and the “Particle size distribution D90” value [3] was 2840 μm. For the same molecule, the “Dust explosion Class” value ([4]; Wt. of sample 120 mg, eq. dust concentration 100 g/m3) was 1, the “Dust explosion Class” value ([4]; Wt. of sample 240 mg, eq. dust concentration 200 g/m3) was 2 and the “Dust explosion class (overall)” value ([4]; summary of safety studies) was “St2H”. The Es [5] was 1.7 mJ, the “Minimum ignition energy MIE” value [5] was 1.7 mJ and the particle size [6] was “less than 150 μm”.
